Drawing on the METLIN SMRT retention time set (Domingo-Almenara et al. 2019), this text covers RP-LC retention time for 60 compounds.

SMILES strings stand for the structures.

The nature of this data set: gradient 5% acetonitrile 3 min, to 50% in 2 min, to 85% in 15 min, held 3 min, 100 µL/min. To be noted: column: Zorbax Extend-C18 2.1 x 50 mm; eluents: water / acetonitrile, 0.1% formic acid. Summed up:
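Pure standards were run in mixtures of ~100 molecules by HPLC coupled to a quadrupole time-of-flight mass spectrometer. The column was a Zorbax Extend-C18 (2.1 × 50 mm, 1.8 μm) at 100 μL/min, with water and acetonitrile each containing 0.1% formic acid, in positive and negative ionization mode. Dead and dwell volumes were 40 μL and 900 μL. Retention time was taken from computationally picked adduct peaks, each manually inspected, with data collected over 3 months.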
In turn, `O=C(NC1CC1)c1ccc(OCC2CCCN2C(=O)c2ccccc2C(F)(F)F)cc1` (stereo not given) displayed an RP-LC retention time of 832 s. With `COc1cccc(CNC(=O)N2c3ccccc3CC2c2nc(C(C)C)no2)c1` (stereo not given), the RP-LC retention time is 1000 s. Take `Cc1ccc(NC(=O)N2CCCC(C)(C(=O)NCc3ccccc3C)C2)cc1` (stereo not given): the RP-LC retention time came out at 942 s. The compound `CC1CCN(CCNC(=O)C2CCCN(c3ncnc4c3nc3n4CCCCC3)C2)CC1` (stereo not given) yielded an RP-LC retention time of 599 s. For the compound `CCOc1ccc2nc(Nc3nc(C)c4c(n3)CCCC4)nc(C)c2c1`, the RP-LC retention time was determined as 573 s. `CCN1C(=O)CCc2cc(NC(=O)C3CCC3)ccc21` had an RP-LC retention time of 691 s. In the case of `CCS(=O)(=O)N1C[C@@H](COc2cccnc2)[C@H](c2ccccn2)C1` it was 561 s. For `O=C(NCc1cccnc1)C1CN(C(=O)c2cccs2)CC12CCCCC2` (stereo not given), the RP-LC retention time worked out at 619 s.

With `Cc1cc(=O)n(CC(=O)Nc2ccccc2F)c(N2CCCCC2)n1`, the RP-LC retention time was found to be 649 s.

In turn, `COc1ccc(-c2noc(CN3C(=O)COc4cc(Cl)ccc43)n2)cc1` came in with an RP-LC retention time of 1060 s.

`O=C(CCc1nc(CSc2nc3ccccc3o2)no1)Nc1nc(-c2ccccc2)cs1` returned an RP-LC retention time of 1030 s. `CCN1C(=O)c2cccnc2Sc2cc(C(=O)NCC(C)C)ccc21` displayed an RP-LC retention time of 748 s. In the case of `CCN1CCn2cc(S(=O)(=O)Nc3cc(C)ccc3C)cc2C1=O`, the RP-LC retention time came out at 752 s. `O=C(Cc1nc(-c2ccccn2)n[nH]1)Nc1cccc(Cl)c1` yielded an RP-LC retention time of 673 s. `c1cc(-c2noc(COC3CCCN(Cc4ccoc4)C3)n2)ccn1` (stereo not given) yielded an RP-LC retention time of 570 s. Regarding `Cc1ccc(S(=O)(=O)N2C(=O)CCC2C(=O)N2CCc3ccccc32)cc1C` (stereo not given), the RP-LC retention time was 1000 s. `Cc1cc(NS(=O)(=O)c2cc(-c3[nH]ncc3C(=O)N3CCCC3)oc2C)ccc1F` returned an RP-LC retention time of 730 s. Compound `O=C(NCCN1CCOCC1)c1nnc(-c2ccc(S(=O)(=O)N3CCOCC3)cc2)o1` returned an RP-LC retention time of 578 s. As to `O=C(c1ccc2cc[nH]c2c1)N1C[C@@H]2C[C@H]1C[C@@H]2NS(=O)(=O)c1cccs1`, the RP-LC retention time was 754 s. In the case of `O=C(NCc1ccccn1)C1CCCN(C(=O)NCc2cccs2)C1` (stereo not given) it was 550 s; in that of `C=CCN1C(=O)COc2ccc(-c3nc(NC(=O)C(F)(F)F)sc3C)cc21`, 932 s.

As to `COc1ccc(C(=O)N2C[C@@H]3C[C@H](NC(=O)c4cccs4)[C@H]2C3)cn1`, the RP-LC retention time is 679 s. As for `CCOC(=O)c1noc2nc(C)nc(Nc3cccc(CC)c3)c12`, the RP-LC retention time stood at 1140 s. On to `CC(C)C1c2nccn2CCCN1C(=O)c1ccc2c(c1)OCO2` (stereo not given), for which the RP-LC retention time is 603 s.

The compound `COc1ccc(CNC(=O)C2CCCN(c3nnc4ccc(Cl)cn34)C2)cc1OC` (stereo not given) yielded an RP-LC retention time of 685 s. For the compound `Cc1nnc(C(C)C)n1C1CC2CCC(C1)N2CC[C@H](NC(=O)C1CCC(F)(F)CC1)c1ccccc1` (stereo not given in full), the RP-LC retention time amounted to 674 s. The compound `CCn1nccc1-c1cccc(-c2noc(CNS(=O)(=O)c3ccc(F)cc3)n2)c1` returned an RP-LC retention time of 931 s.

`CC(=O)OCC(=O)NCCCOc1cccc(CN2CCCCC2)c1`: the RP-LC retention time was 618 s. With `Cc1cc(N2CCN(C(=O)Cc3ccccc3Br)CC2)nc2nnc(C)n12`, the RP-LC retention time was determined as 623 s. Turning to `COc1ccc(CNC(=O)C2CCN(c3cnc4nccnc4c3)CC2)cc1`, the RP-LC retention time came to 664 s. In the case of `CCCCOc1ccc(C(=O)N2CCN(c3nc4ccncc4n(C)c3=O)CC2)cc1` it was 702 s. The compound `C=CCN1C(=O)COc2ccc(-c3csc(NC(=O)c4ccc(Cl)cc4)n3)cc21` yielded an RP-LC retention time of 1100 s.

Regarding `CCN1C(=O)c2cccnc2Sc2cc(C(=O)NCc3ccccc3)ccc21`, the RP-LC retention time came to 780 s. Regarding `COc1ccc(OC)c(NC(=O)c2[nH]c3cc(C)sc3c2CN(C)C)c1`, the RP-LC retention time was determined as 692 s. `CCOC(=O)C1CCCN(C(=O)Cn2ccc3ccc(-c4nnc(C)o4)cc32)C1` (stereo not given) yielded an RP-LC retention time of 785 s. In turn, `COc1ccc(-c2c(C)noc2NC(C)=O)cc1S(=O)(=O)N1CCC(C)CC1` returned an RP-LC retention time of 801 s. With `Cn1c(=O)n(CCN2CCOCC2)c(=O)c2c1nc1n2CCCN1c1ccc(Cl)cc1`, the RP-LC retention time was 643 s. For `CC(C)Cn1cc(S(=O)(=O)Nc2ccc(F)c(F)c2)c2cccnc21`, the RP-LC retention time amounted to 994 s.

Turning to `Cc1cc(C)cc(C(=O)Nc2cnc(N3CCOCC3)nc2)c1`, the RP-LC retention time was found to be 824 s.

In the case of `CCOC(=O)C1CCCN(c2ccc(-n3nc(C)cc3C)nn2)C1` (stereo not given), the RP-LC retention time was found to be 680 s. As for `O=S(=O)(c1cccc(F)c1)N1CC(c2nc(CCOCC3CC3)no2)C1`, the figure is 907 s; as for `Cc1cc(C)cc(NC(=O)c2cccn2Cc2noc(C)n2)c1`, 928 s. On to `CCc1nc(-c2c(C)cc(C)nc2NC(=O)c2cccc(Br)c2)no1`, for which the RP-LC retention time amounted to 898 s.

The compound `CCOc1ccc(S(=O)(=O)N2CCCC(C(=O)NCCc3ccc(OC)c(OC)c3)C2)cc1` (stereo not given) came in with an RP-LC retention time of 884 s. Consider `O=C(CCc1nnc(C(=O)Nc2ccccc2)s1)NCCc1c[nH]c2ccccc12`, for which the RP-LC retention time worked out at 843 s. In turn, `CC(C)CC(NC(=O)OCc1ccccc1)C(=O)NC(Cc1c[nH]c2ccccc12)C(=O)O` (stereo not given) showed an RP-LC retention time of 926 s. Compound `Cc1cccc(C(=O)N2CCc3cc(CNS(=O)(=O)Cc4ccccc4)ccc32)c1` displayed an RP-LC retention time of 972 s. `COCC(=O)Nc1ccccc1NC(=O)c1ccco1` returned an RP-LC retention time of 618 s.

In turn, `O=C1CN(C(=O)c2ccccc2F)c2ccccc2N1` returned an RP-LC retention time of 645 s. In turn, `CNC(=O)C1CCCN(c2nc3ncn(CC(=O)NCc4ccccc4Cl)c(=O)c3s2)C1` (stereo not given) registered an RP-LC retention time of 664 s.

The compound `CCc1nc(-c2csc(S(=O)(=O)N3CCCC(C(=O)Nc4ccc(F)cc4F)C3)c2)no1` (stereo not given) returned an RP-LC retention time of 1060 s.

As for `COc1cccc(-n2cc(C(=O)O)c3ccccc3c2=O)c1`, the RP-LC retention time was 760 s. Consider `Cc1nc(-c2ccc3c(c2)CCN3C(=O)Cc2ccc(F)cc2)cs1`, for which the RP-LC retention time is 990 s. Compound `CC(C)c1nnc2n1CCN(C(=O)c1ccsc1)C2` displayed an RP-LC retention time of 596 s. `CCOC(=O)[C@@H](N)Cc1ccc(O)c(O)c1` came in with an RP-LC retention time of 579 s. In the case of `O=C(CN1C(=O)CCC1=O)NC1CCCC(OC(=O)Nc2ccc(F)cc2)C1` (stereo not given) it was 674 s; in that of `Cc1c(CCC(=O)NCC(=O)N[C@@H](C(=O)O)C(C)C)c(=O)oc2c(C)c(O)ccc12`, 636 s; in that of `COCCOc1ccc2c(n1)CCN(C(=O)NCCC(C)C)C2`, 762 s. `CCCn1ccc2sc(C)c(C(=O)NCc3cc(OC)ccc3OC)c2c1=O` yielded an RP-LC retention time of 889 s. Regarding `CCn1nccc1C(=O)NC1CCN(C2=NS(=O)(=O)C(c3ccccc3)=C2C)CC1`, the RP-LC retention time is 764 s.
